According to PubChem BioAssay AID330 (DTP/NCI, 2004):
“And” between values parts separate entries of the source, which are not always exact repeats. Equal values may be shown once. Toxic doses and inconclusive results are not listed. Rule for the calls: active = survival T/C of 150% or more; inactive = T/C below 125% in these data.

System: P388 leukemia ip, CD2F1 mice, survival T/C
Assay: NCI In Vivo Anticancer Drug Screen. Data for tumor model P388 Leukemia (intraperitoneal) in CD2F1 (CDF1) mice
Conditions: endpoint: median survival time, higher = longer survival
How it was run: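 Mice carrying the transplanted tumor received test compound or vehicle. Survival was recorded in each group, and the value is the treated-group measurement divided by that of the vehicle-treated control group.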

[1] = dose: 50.0 mg/kg/injection, schedule: Q01DX005 (ip), vehicle: saline with Tween-80
[2] = dose: 50.0 mg/kg/injection, schedule: Q01DX009 (ip), vehicle: Klucel (hydroxypropylcellulose) (HPC)
[3] = dose: 100.0 mg/kg/injection, schedule: Q01DX005 (ip), vehicle: saline with Tween-80
[4] = dose: 100.0 mg/kg/injection, schedule: Q01DX009 (ip), vehicle: Klucel (hydroxypropylcellulose) (HPC)
[5] = dose: 200.0 mg/kg/injection, schedule: Q01DX005 (ip), vehicle: saline with Tween-80
[6] = dose: 200.0 mg/kg/injection, schedule: Q01DX009 (ip), vehicle: Klucel (hydroxypropylcellulose) (HPC)
[7] = dose: 240.0 mg/kg/injection, schedule: Q01DX005 (ip), vehicle: saline with Tween-80
[8] = dose: 12.5 mg/kg/injection, schedule: Q01DX009 (ip), vehicle: saline
[9] = dose: 25.0 mg/kg/injection, schedule: Q01DX009 (ip), vehicle: saline
[10] = dose: 50.0 mg/kg/injection, schedule: Q01DX009 (ip), vehicle: saline
[11] = dose: 200.0 mg/kg/injection, schedule: Q01DX009 (ip), vehicle: saline
[12] = dose: 6.25 mg/kg/injection, schedule: Q01DX009 (ip), vehicle: saline
[13] = dose: 60.0 mg/kg/injection, schedule: Q01DX005 (ip), vehicle: saline with Tween-80
[14] = dose: 120.0 mg/kg/injection, schedule: Q01DX005 (ip), vehicle: saline with Tween-80
[15] = dose: 100.0 mg/kg/injection, schedule: Q01DX009 (ip), vehicle: saline

Measured: T/C

CN(C)C1C(=O)C(C(N)=O)=C(O)C2(O)C(=O)C3=C(O)c4c(O)cccc4C(C)(O)C3CC12.O.O.O.[Al] (stereo not drawn)
inactive: dose: 25.0 mg/kg/injection, schedule: Q01DX009 (ip), vehicle: Klucel (hydroxypropylcellulose) (HPC) 95 % of control | [1] 99 % of control | [2] 92 % of control | [3] 99 % of control | [4] 103 % of control | [5] 99 % of control | [6] 106 % of control | dose: 400.0 mg/kg/injection, schedule: Q01DX009 (ip), vehicle: Klucel (hydroxypropylcellulose) (HPC) 107 % of control

O[C@]12C=C[C@H](CCCC1)O2
inactive: [1] 107 % of control | [3] 108 % of control | [5] 111 % of control

COc1ccc(C2c3cc4c(cc3OC(N3CCCC3)C2C)OCO4)cc1 (stereo not drawn)
inactive: dose: 7.5 mg/kg/injection, schedule: Q01DX005 (ip), vehicle: saline with Tween-80 90 % of control | dose: 15.0 mg/kg/injection, schedule: Q01DX005 (ip), vehicle: saline with Tween-80 90 % of control | dose: 30.0 mg/kg/injection, schedule: Q01DX005 (ip), vehicle: saline with Tween-80 94 % of control | [7] 90 % of control

CCC(=O)NC(CC(C)C)C(=O)O (stereo not drawn)
inactive: [8] 111 % of control | [9] 95 % of control | [10] 89 % of control | [11] 107 % of control

CC/C(C)=N/NC(=S)NC
inactive: [12] 98 % of control | [8] 98 % of control | [9] 101 % of control

C=C1C(=O)OC2/C=C(CO)/C=C\C3OC3(C)CC(OC(=O)/C(C)=C/COC(C)=O)C12 (stereo not drawn)
inactive: dose: 6.25 mg/kg/injection, schedule: Q01DX005 (ip), vehicle: Klucel (hydroxypropylcellulose) (HPC) 94 % of control | dose: 12.5 mg/kg/injection, schedule: Q01DX005 (ip), vehicle: Klucel (hydroxypropylcellulose) (HPC) 103 % of control | dose: 25.0 mg/kg/injection, schedule: Q01DX005 (ip), vehicle: Klucel (hydroxypropylcellulose) (HPC) 109 % of control and 94 % of control | dose: 50.0 mg/kg/injection, schedule: Q01DX005 (ip), vehicle: Klucel (hydroxypropylcellulose) (HPC) 98 % of control

CC(C)(C)c1cc(C(C)(C)C)c2ssnc1-2
inactive: [13] 89 % of control | [14] 91 % of control | [7] 91 % of control

COc1ccc2c(c1OC)CC(=O)N1CCc3cc4c(cc3C(=O)C21)OCO4 (stereo not drawn)
inactive: dose: 2.5 mg/kg/injection, schedule: Q01DX005 (ip), vehicle: saline + Tween-80 + alcohol 104 % of control | dose: 5.0 mg/kg/injection, schedule: Q01DX005 (ip), vehicle: saline + Tween-80 + alcohol 101 % of control | dose: 10.0 mg/kg/injection, schedule: Q01DX005 (ip), vehicle: saline + Tween-80 + alcohol 100 % of control | dose: 20.0 mg/kg/injection, schedule: Q01DX005 (ip), vehicle: saline + Tween-80 + alcohol 107 % of control

CC(C)CCCCCCCCCCCCC(=O)NCC(=O)O
inactive: dose: 12.5 mg/kg/injection, schedule: Q01DX009 (ip), vehicle: distilled water + Tween-80 96 % of control | dose: 25.0 mg/kg/injection, schedule: Q01DX009 (ip), vehicle: distilled water + Tween-80 96 % of control | dose: 50.0 mg/kg/injection, schedule: Q01DX009 (ip), vehicle: distilled water + Tween-80 86 % of control | dose: 100.0 mg/kg/injection, schedule: Q01DX009 (ip), vehicle: distilled water + Tween-80 86 % of control | dose: 200.0 mg/kg/injection, schedule: Q01DX009 (ip), vehicle: distilled water + Tween-80 87 % of control

CCN(CC)CCCC(C)NC(Cc1ccccc1)c1cccc2ccccc12 (stereo not drawn)
inactive: dose: 25.0 mg/kg/injection, schedule: Q01DX005 (ip), vehicle: suspension in saline 100 % of control | dose: 50.0 mg/kg/injection, schedule: Q01DX005 (ip), vehicle: suspension in saline 106 % of control

CCCC(=O)NN=C(C)C
inactive: [8] 104 % of control | [9] 109 % of control

Cn1c2c(c3nc(N)nc(N)c3c1=O)CCc1ccccc1-2
inactive: dose: 25.0 mg/kg/injection, schedule: Q01DX005 (ip), vehicle: distilled water + alcohol 102 % of control | dose: 50.0 mg/kg/injection, schedule: Q01DX005 (ip), vehicle: distilled water + alcohol 96 % of control | dose: 100.0 mg/kg/injection, schedule: Q01DX005 (ip), vehicle: distilled water + alcohol 94 % of control | dose: 200.0 mg/kg/injection, schedule: Q01DX005 (ip), vehicle: distilled water + alcohol 103 % of control

Nc1nc(-c2ccc(Cl)cc2)nc2sc3c(c12)CCCCC3
inactive: [1] 90 % of control | [3] 90 % of control | [5] 95 % of control

CCCCCCCCCCCCS(=O)CC(C)O (stereo not drawn)
inactive: dose: 25.0 mg/kg/injection, schedule: Q01DX009 (ip), vehicle: saline + Tween-80 + alcohol 99 % of control and 101 % of control | dose: 50.0 mg/kg/injection, schedule: Q01DX009 (ip), vehicle: saline + Tween-80 + alcohol 95 % of control and 97 % of control | dose: 100.0 mg/kg/injection, schedule: Q01DX009 (ip), vehicle: saline + Tween-80 + alcohol 92 % of control and 95 % of control | dose: 200.0 mg/kg/injection, schedule: Q01DX009 (ip), vehicle: saline + Tween-80 + alcohol 99 % of control and 105 % of control | dose: 400.0 mg/kg/injection, schedule: Q01DX009 (ip), vehicle: saline + Tween-80 + alcohol 99 % of control and 107 % of control

Cc1nn(C(=O)c2ccncc2)c(C)c1N=Nc1ccc(S(=O)(=O)Nc2ccccn2)cc1
inactive: [2] 100 % of control | [4] 91 % of control | [6] 92 % of control

CN1CN=C(Sc2ccc(Cl)cc2[N+](=O)[O-])NC1
inactive: [10] 89 % of control | [15] 100 % of control | [11] 104 % of control

C=CCOc1cc2c(cc1C(C)c1ccc(OCCC)cc1)OCO2 (stereo not drawn)
inactive: [1] 97 % of control | [3] 102 % of control | [5] 107 % of control

COc1cc2cccc(N)c2cc1OC
inactive: dose: 6.25 mg/kg/injection, schedule: Q01DX009 (ip), vehicle: water 106 % of control | dose: 12.5 mg/kg/injection, schedule: Q01DX009 (ip), vehicle: water 114 % of control | dose: 25.0 mg/kg/injection, schedule: Q01DX009 (ip), vehicle: water 110 % of control | dose: 50.0 mg/kg/injection, schedule: Q01DX009 (ip), vehicle: water 110 % of control

CN1C(=O)C23CCCN2C(=O)C1(C)SC(=N)S3 (stereo not drawn)
inactive: dose: 25.0 mg/kg/injection, schedule: Q04DX003 (ip), vehicle: suspension in saline 101 % of control | dose: 50.0 mg/kg/injection, schedule: Q04DX003 (ip), vehicle: suspension in saline 95 % of control | dose: 100.0 mg/kg/injection, schedule: Q04DX003 (ip), vehicle: suspension in saline 95 % of control

O=C(NCc1ccccc1)c1cccnc1
inactive: [15] 100 % of control | [11] 98 % of control | dose: 400.0 mg/kg/injection, schedule: Q01DX009 (ip), vehicle: saline 100 % of control

CCCCCCCCCCCCCCCCCCCC[N+]1([O-])CCOCC1
inactive: dose: 3.12 mg/kg/injection, schedule: Q01DX009 (ip), vehicle: saline 101 % of control | [12] 87 % of control | [8] 87 % of control and 94 % of control | [9] 94 % of control | [10] 90 % of control and 92 % of control

COC(=O)C1(CC(=O)c2cc(Cl)ccc2Cl)NC(=S)NC(=O)C1C#N (stereo not drawn)
inactive: [13] 94 % of control | [14] 92 % of control | [7] 95 % of control

CN(C)CCC(=O)C(=Cc1c(Cl)cccc1Cl)C(=O)CCN(C)C
inactive: dose: 7.5 mg/kg/injection, schedule: Q01DX005 (ip), vehicle: saline 119 % of control and 120 % of control | dose: 15.0 mg/kg/injection, schedule: Q01DX005 (ip), vehicle: saline 120 % of control and 123 % of control
